Measurements published in patent US20250339443A1, “METHOD FOR TREATING OR PREVENTING CALCIUM RELEASE-ACTIVATED CALCIUM CHANNEL OR DISCOIDIN DOMAIN RECEPTOR 2 RELATED DISORDERS OR CONDITIONS” (LumiSTAR Biotechnology, Inc., priority 2023, published 2025).

Assays:
CRAC channel = CRAC channel (Homo sapiens, UniProt Q96D31); assay: CRAC channel activity / SOCE by Fura 2-AM cytosolic Ca2+ imaging in HEK293T cells; format: cell-based; parameters: endogenous in cells; host or cells: HEK293T; conditions: 10 μM, 1 μM thapsigargin then 2 mM Ca2+
Sequence of CRAC channel (Q96D31 whole entry): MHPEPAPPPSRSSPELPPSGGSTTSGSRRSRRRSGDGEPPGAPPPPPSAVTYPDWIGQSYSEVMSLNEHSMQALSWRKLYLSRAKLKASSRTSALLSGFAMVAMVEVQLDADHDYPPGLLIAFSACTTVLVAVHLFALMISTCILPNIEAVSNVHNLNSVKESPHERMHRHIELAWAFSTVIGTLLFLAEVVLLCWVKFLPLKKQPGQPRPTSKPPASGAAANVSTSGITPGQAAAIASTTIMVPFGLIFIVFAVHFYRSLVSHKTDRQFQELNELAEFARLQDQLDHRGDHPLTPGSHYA
Method: CRAC channel activity was evaluated by applying 1 μM thapsigargin (Thap.) in a calcium-free solution to deplete the endoplasmic reticulum calcium store, followed by the reintroduction of 2 mM Ca^2+ in an external solution. The concentration of cytosolic calcium ions increases as calcium flows through the CRAC channel, leading to the second peak in cytosolic calcium waves. […] Each bar represents the mean value derived from 47 to 103 cells. […] Each bar represents the mean value derived from 83 to 176 cells. […] Further analyses are presented in FIG. 1I and FIG. 1J, where the second peak of each wave and rate of entry were analyzed. Each bar represents the mean value derived from 72 to 108 cells. […] In all the graphs, each bar represents mean±SEM and *, **, and *** denote p-value <0.05, 0.01, and 0.001, respectively.
Cells were then washed and incubated with the same solution in addition to the supplement of Fura 2-AM for another 15 minutes for fully de-esterification. […] 1 μM thapsigargin was added to induce endoplasmic reticulum (ER) calcium store depletion followed by applying 2 mM calcium solution to assess the activation of calcium release-activated calcium (CRAC) channels. Cells were alternately excited at 340 and 380 nm, and images were acquired every 2 seconds. […] All the images were analyzed by using IGOR Pro software. […]

DDR2 = target: T1, DDR2 (Homo sapiens, UniProt Q16832); assay: DDR2 activation (anti-phosphotyrosine Western blot) in HEK293T cells overexpressing DDR2, collagen-stimulated; format: cell-based; conditions: 10 μM pretreatment 30 minutes, then 50 μg/mL type I collagen 12 hours
T1 construct: expressed in transfected cells; host or cells: HEK293T
T1 sequence (Q16832 22-855): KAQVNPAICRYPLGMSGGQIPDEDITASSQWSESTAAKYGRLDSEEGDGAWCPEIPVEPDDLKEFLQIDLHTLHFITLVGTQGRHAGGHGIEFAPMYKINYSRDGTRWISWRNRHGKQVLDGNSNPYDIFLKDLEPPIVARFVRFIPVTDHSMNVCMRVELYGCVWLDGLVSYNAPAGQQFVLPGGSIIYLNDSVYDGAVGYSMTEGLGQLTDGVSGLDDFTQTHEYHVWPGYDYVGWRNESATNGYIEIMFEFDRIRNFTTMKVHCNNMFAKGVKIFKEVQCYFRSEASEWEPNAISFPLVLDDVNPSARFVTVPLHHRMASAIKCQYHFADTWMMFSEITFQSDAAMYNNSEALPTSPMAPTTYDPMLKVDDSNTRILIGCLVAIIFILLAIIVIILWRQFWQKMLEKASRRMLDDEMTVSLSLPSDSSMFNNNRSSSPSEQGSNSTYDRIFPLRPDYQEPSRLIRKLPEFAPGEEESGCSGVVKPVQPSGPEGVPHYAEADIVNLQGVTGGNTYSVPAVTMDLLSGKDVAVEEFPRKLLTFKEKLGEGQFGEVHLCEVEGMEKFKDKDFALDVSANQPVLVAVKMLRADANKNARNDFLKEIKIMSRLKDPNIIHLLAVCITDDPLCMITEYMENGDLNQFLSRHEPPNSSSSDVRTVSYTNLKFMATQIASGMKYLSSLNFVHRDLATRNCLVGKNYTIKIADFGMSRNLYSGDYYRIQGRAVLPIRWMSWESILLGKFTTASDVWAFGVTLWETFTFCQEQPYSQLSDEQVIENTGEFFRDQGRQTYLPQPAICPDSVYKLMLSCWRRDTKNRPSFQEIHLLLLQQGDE
Method: FIG. 1A, FIG. 1B, FIG. 1C, FIG. 1D, FIG. 1E, FIG. 1F, FIG. 1G, FIG. 1H, FIG. 1I, FIG. 1J, FIG. 1K, FIG. 1L, FIG. 1M, and FIG. 1N show WRG-28 and atovaquone (Av) suppress the activation of DDR2 and calcium release-activated calcium (CRAC) channel. FIG. 1A indicates HEK293T cells were transiently overexpressed with DDR2 and then pretreated with different compounds (10 μM), including WRG-28, Av, donepezil hydrochloride (Dh), terazosin hydrochloride (Th), verapamil and flecainide for 30 minutes. Verapamil and flecainide were used as negative control here. After that, cells were treated with 50 μg/mL type I collagen for 12 hours. Cell lysates were harvested and subjected to Western blot analysis with antibodies against phosphotyrosine antibody (clone 4G10), DDR2, and β-actin. […] CRAC channel activity was evaluated by applying 1 μM thapsigargin (Thap.) in a calcium-free solution to deplete the endoplasmic reticulum calcium store, followed by the reintroduction of 2 mM Ca^2+ in an external solution. […] Further analyses are presented in FIG. 1I and FIG. 1J, where the second peak of each wave and rate of entry were analyzed. […] The Orai1 and Stim1 puncta in HEK293T cells overexpressed with CFP-Orai1/Stim1-mCherry were assessed. […]
Cell lysates were harvested in RIPA buffer (150 mM NaCl, 1 mM EGTA, 50 mM Tris pH 7.4, 10% glycerol, 1% Triton X-100, 1% sodium deoxycholate, 0.1% SDS, and protease inhibitor cocktail) and collected from culture dish with cell scrapers. […] The protein expression levels were assessed by specific primary antibodies, including antibodies against phosphotyrosine (clone 4G10; Millipore), DDR2 (R&D), α-SMA (Sigma), Collagen 1a1 (Boster), E-cadherin (BD Biosciences), SGLT2 (Proteintech), NHE1 (Novus) and β-actin (Clone C4, Millipore), followed by incubating with secondary antibodies conjugated with HRP and detected by ECL kit (Thermo Scientific).
To examine the impact of these compounds on DDR2 activation, HEK293T cells overexpressing DDR2 were pretreated with various compounds. […] The activation of DDR2 was evaluated using an anti-phosphotyrosine antibody. […]

SMILES: CCNS(=O)(=O)c1ccc(COc2ccc3nc4ccc(=O)cc-4oc3c2)cc1 [WRG-28]
- second peak and rate of SOCE (CRAC channel): significantly reduced
- activation of DDR2 (phosphotyrosine) (DDR2): suppress
